Like-named read-outs stand apart in the source and are kept apart here.
System: PLR3
Assay: light-based bioluminescence assay
Type: biochemical, Photinus pyralis
Settings: pH 7.4

O=C(O)[C@H]1CSC(c2nc3ccc(O)cc3s2)=N1 [LH2]
Km (read-out: Km (μM) / LH2, co-substrate Mg-ATP, O2): 17 ± 3 µM

Nc1ncnc2c1ncn2[C@@H]1O[C@H](COP(=O)(O)OP(=O)(O)OP(=O)(O)O)[C@@H](O)[C@H]1O [Mg-ATP]
Km (read-out: Km (μM) / Mg-ATP, co-substrate LH2, O2, Mg complex): 12 ± 2 µM
